Experimental data reported in ChEMBL document CHEMBL3769367, “Orexin Receptor Antagonists: New Therapeutic Agents for the Treatment of Insomnia” (J Med Chem, 2016).

How the values were obtained:
Rattus norvegicus [1] = assay: Effect on sleep parameter in po dosed rat by EEG analysis; format: functional
Homo sapiens [2] = assay: Effect on sleep parameter in insomnia patient assessed as total sleep time at 80 mg, po measured on night 1 by polysomnography; format: functional
Homo sapiens [3] = assay: Effect on sleep parameter in insomnia patient assessed as wake after sleep onset time at 20 mg, po measured on night 28 by polysomnography; format: functional
[4] = Plasma protein binding in dog; format: ADME, cell-free, Canis lupus familiaris; details: read-out: PPB (converted)
Rattus norvegicus [5] = species on record: Rattus norvegicus; assay: Receptor occupancy at OX2R in rat brain assessed as drug level in plasma; format: functional
[6] = Clearance in iv dosed rat; format: ADME, organism-based; details: in vivo
Canis familiaris = assay: Effect on sleep parameter in po dosed dog by EEG analysis; format: functional, Canis lupus familiaris
Homo sapiens [7] = assay: Effect on sleep parameter in insomnia patient assessed as total sleep time at 80 mg, po measured on night 28 by polysomnography; format: functional
[8] = Apparent permeability of the compound; format: physicochemical; details: not told
[9] = Tmax in human plasma; format: ADME, organism-based
[10] = Terminal half life in human plasma; format: ADME, organism-based; details: read-out: beta t1/2 (converted)
Homo sapiens [11] = assay: Effect on sleep parameter in insomnia patient assessed as sleep efficiency at 10 mg, po measured on night 1 by polysomnography; format: functional
Homo sapiens [12] = assay: Effect on sleep parameter in insomnia patient assessed as latency to persistent sleep time at 10 mg, po measured on night 1 by polysomnography; format: functional
Homo sapiens [13] = assay: Effect on sleep parameter in insomnia patient assessed as wake after sleep onset time at 10 mg, po measured on night 1 by polysomnography; format: functional
Homo sapiens [14] = assay: Effect on sleep parameter in insomnia patient assessed as total sleep time at 10 mg, po measured on night 1 by polysomnography; format: functional
Homo sapiens [15] = assay: Effect on sleep parameter in insomnia patient assessed as sleep efficiency at 20 mg, po measured on night 1 by polysomnography; format: functional
Homo sapiens [16] = assay: Effect on sleep parameter in insomnia patient assessed as latency to persistent sleep time at 20 mg, po measured on night 1 by polysomnography; format: functional
Homo sapiens [17] = assay: Effect on sleep parameter in insomnia patient assessed as wake after sleep onset time at 20 mg, po measured on night 1 by polysomnography; format: functional
Homo sapiens [18] = assay: Effect on sleep parameter in insomnia patient assessed as total sleep time at 20 mg, po measured on night 1 by polysomnography; format: functional
Homo sapiens [19] = assay: Effect on sleep parameter in insomnia patient assessed as sleep efficiency at 40 mg, po measured on night 1 by polysomnography; format: functional
Homo sapiens [20] = assay: Effect on sleep parameter in insomnia patient assessed as latency to persistent sleep time at 40 mg, po measured on night 1 by polysomnography; format: functional
Homo sapiens [21] = assay: Effect on sleep parameter in insomnia patient assessed as wake after sleep onset time at 40 mg, po measured on night 1 by polysomnography; format: functional
Homo sapiens [22] = assay: Effect on sleep parameter in insomnia patient assessed as total sleep time at 40 mg, po measured on night 1 by polysomnography; format: functional
Homo sapiens [23] = assay: Effect on sleep parameter in insomnia patient assessed as sleep efficiency at 80 mg, po measured on night 1 by polysomnography; format: functional
Homo sapiens [24] = assay: Effect on sleep parameter in insomnia patient assessed as latency to persistent sleep time at 80 mg, po measured on night 1 by polysomnography; format: functional
Homo sapiens [25] = assay: Effect on sleep parameter in insomnia patient assessed as wake after sleep onset time at 80 mg, po measured on night 1 by polysomnography; format: functional
Homo sapiens [26] = assay: Effect on sleep parameter in insomnia patient assessed as sleep efficiency at 10 mg, po measured on night 28 by polysomnography; format: functional
Homo sapiens [27] = assay: Effect on sleep parameter in insomnia patient assessed as latency to persistent sleep time at 10 mg, po measured on night 28 by polysomnography; format: functional
Homo sapiens [28] = assay: Effect on sleep parameter in insomnia patient assessed as wake after sleep onset time at 10 mg, po measured on night 28 by polysomnography; format: functional
Homo sapiens [29] = assay: Effect on sleep parameter in insomnia patient assessed as total sleep time at 10 mg, po measured on night 28 by polysomnography; format: functional
Homo sapiens [30] = assay: Effect on sleep parameter in insomnia patient assessed as sleep efficiency at 20 mg, po measured on night 28 by polysomnography; format: functional
Homo sapiens [31] = assay: Effect on sleep parameter in insomnia patient assessed as latency to persistent sleep time at 20 mg, po measured on night 28 by polysomnography; format: functional
Homo sapiens [32] = assay: Effect on sleep parameter in insomnia patient assessed as total sleep time at 20 mg, po measured on night 28 by polysomnography; format: functional
Homo sapiens [33] = assay: Effect on sleep parameter in insomnia patient assessed as sleep efficiency at 40 mg, po measured on night 28 by polysomnography; format: functional
Homo sapiens [34] = assay: Effect on sleep parameter in insomnia patient assessed as latency to persistent sleep time at 40 mg, po measured on night 28 by polysomnography; format: functional
Homo sapiens [35] = assay: Effect on sleep parameter in insomnia patient assessed as wake after sleep onset time at 40 mg, po measured on night 28 by polysomnography; format: functional
Homo sapiens [36] = assay: Effect on sleep parameter in insomnia patient assessed as total sleep time at 40 mg, po measured on night 28 by polysomnography; format: functional
Homo sapiens [37] = assay: Effect on sleep parameter in insomnia patient assessed as sleep efficiency at 80 mg, po measured on night 28 by polysomnography; format: functional
Homo sapiens [38] = assay: Effect on sleep parameter in insomnia patient assessed as latency to persistent sleep time at 80 mg, po measured on night 28 by polysomnography; format: functional
Homo sapiens [39] = assay: Effect on sleep parameter in insomnia patient assessed as wake after sleep onset time at 80 mg, po measured on night 28 by polysomnography; format: functional

Q: Which results are given for `Cc1ccc(-n2nccn2)c(C(=O)N2CCN(c3nc4cc(Cl)ccc4o3)CC[C@H]2C)c1` [SUVOREXANT]?
A: Activity (Rattus norvegicus [1]): 10 mg/kg; Time (Homo sapiens [2]): 61.9 min; Time (Homo sapiens [3]): -28.1 min; fraction unbound [4]: 0.01; Occ90 (Rattus norvegicus [5]): 1070 nM; clearance [6]: 44 mL/min/kg; Activity (Canis familiaris): 3 mg/kg; Time (Homo sapiens [7]): 36.6 min; Papp [8]: 37 ×10⁻⁶ cm/s; Tmax [9]: 1.5 h; half-life [10]: 8 h; Activity (Homo sapiens [11]): 5.2%; Time (Homo sapiens [12]): -3.4 min; Time (Homo sapiens [13]): -21.2 min; Time (Homo sapiens [14]): 25.1 min; Activity (Homo sapiens [15]): 7.6%; Time (Homo sapiens [16]): -9.4 min; Time (Homo sapiens [17]): -24.7 min; Time (Homo sapiens [18]): 36.2 min; Activity (Homo sapiens [19]): 10.8%; Time (Homo sapiens [20]): -23.1 min; Time (Homo sapiens [21]): -33.9 min; Time (Homo sapiens [22]): 52.4 min; Activity (Homo sapiens [23]): 12.9%; Time (Homo sapiens [24]): -25.4 min; Time (Homo sapiens [25]): -36.8 min; Activity (Homo sapiens [26]): 4.7%; Time (Homo sapiens [27]): -2.3 min; Time (Homo sapiens [28]): -21.4 min; Time (Homo sapiens [29]): 22.3 min; Activity (Homo sapiens [30]): 10.4%; Time (Homo sapiens [31]): -22.3 min; Time (Homo sapiens [32]): 49.9 min; Activity (Homo sapiens [33]): 7.8%; Time (Homo sapiens [34]): -3.8 min; Time (Homo sapiens [35]): -33.2 min; Time (Homo sapiens [36]): 36.8 min; Activity (Homo sapiens [37]): 7.6%; Time (Homo sapiens [38]): -9.5 min; Time (Homo sapiens [39]): -28.9 min
